≈ marks a conversion by molar mass, not a printed value. Bridge positions count the residues as written; N and C are the ends. Square brackets hold non-standard residues; d marks the D form. Side chains are listed from the residue outwards. Peptide text beside a SMILES is read from it. I, II: the chains in the order shown. Orn = NCCC[C@H](N)C(=O)O
How the values were obtained:
[1] = system: S. aureus ATCC 29213; assay: microbe, parasite or virus in culture; format: cell-based, Staphylococcus aureus; details: ATCC 29213
Method: (§1) Clinical isolates of CRE, MRSA and VRE were obtained from Lancet Laboratories, Durban, South Africa, with approval BE394/15 from the Biomedical Research Ethical Committee of the University of KwaZulu-Natal. Five reference strains of bacteria, namely Escherichia coli ATCC 25922, Pseudomonas aeruginosa ATCC 27853, Enterococcus faecium ATCC 35667, Staphylococcus aureus ATCC 29213 and Bacillus subtilis ATCC 6051 were supplied by the American Type Culture Collection (ATCC).
(§2) MIC values were determined by the broth microdilution method and the significance of the values obtained was interpreted following the guidelines of the Clinical and Laboratory Standards for Antimicrobial Susceptibility Testing.. The effect of human serum on the antimicrobial effect of the molecules tested was determined in a similar way to the MIC method used above in a solution of 50% human serum plus Mueller–Hinton broth.

[2] = system: B. subtilis ATCC 6051; assay: microbe, parasite or virus in culture; format: cell-based, Bacillus subtilis; details: ATCC 6051
Method: as §1, §2

[3] = system: E. faecium ATCC 35667; assay: microbe, parasite or virus in culture; format: cell-based, Enterococcus faecium; details: ATCC 35667
Method: as §1, §2

[4] = system: E. coli ATCC 25822; assay: microbe, parasite or virus in culture; format: cell-based, Escherichia coli; details: ATCC 25822
Method: as §1, §2

[5] = system: P. aeruginosa ATCC 27853; assay: microbe, parasite or virus in culture; format: cell-based, Pseudomonas aeruginosa; details: ATCC 27853
Method: as §1, §2

[6] = system: HepG2 cells; assay: MTT cytotoxicity assay; format: cell-based, human; details: HepG2, range of concentrations tested
Method: (§4) Cell viability was evaluated using the colorimetric MTT assay [21]. Human hepatocarcinoma (HepG2) cells and human embryonic kidney 293 (HEK-293) cells used in the drug toxicity assays were obtained from Cellonex (Johannesburg, South Africa). Viable HepG2 and HEK293 cells (20,000 cells/well) were seeded into a 96-well microtiter plate (200 µL) and allowed to attach overnight. The cells were exposed to varying concentrations of the peptides for 24 h. After removal of the treatment medium, 20 µL of MTT salt solution (5 mg/mL in 0.1M phosphate buffer saline (PBS)) and 100 µL of complete cell culture medium (CCM) were added to each well. After a 4 h (37 °C) incubation, the MTT salt solution was discarded and 100 μL of dimethyl sulphoxide (DMSO) were added to each well (1 h, 37 °C). The optical density of the solubilized formazan product was measured at 570 nm (reference λ of 690 nm) using a Bio-tek μQuant spectrophotometer (Winooski, VT, USA). […] GraphPad Prism (V5) (La Jolla, CA, USA) was used to obtain the half maximum inhibitory concentration (IC50) for each compound.

[7] = system: MRSA (methicillin-resistant S. aureus) isolates; assay: microbe, parasite or virus in culture; format: cell-based; details: methicillin-resistant ) isolates
Method: as §1, §2

[8] = system: P. aeruginosa; assay: Time–kill curves; format: cell-based; details: any concentration tested (MIC, ½ MIC, ¼ MIC)
Method: Killing curve assays were performed with a starting inoculum of 6 × 10^6 CFU/mL. […] Antimicrobials were added to 5 mL of bacteria in the exponential phase of growth and incubated at 37 °C with shaking. Samples were obtained aseptically at 0, 1, 2, 4, 6 and 24 h, diluted in Ringer 1/4 and plated on TSA for colony counting. The response of microbial strains to a single antimicrobial was determined by lowering logarithms of viable bacteria. In accordance with Lora-Tamayo et al., an antimicrobial was considered active when a reduction of ≥1 log10 relative to the initial inoculum was observed.

[9] = system: E. coli; assay: Effect on bacterial growth curves; format: cell-based; details: irrespective of concentration (MIC, ½ MIC and ¼ MIC)
Method: (§3) The study of the growth dynamic of the S. aureus, E. coli and P.aeruginosa strains against CAMPDs were assayed with a starting inoculum of 10^6–10^8 CFU/mL in a 10 mL specific falcon tube. The experiment was performed by a real-time reverse-spin bioreactor RTS-1 (Biosan SIA, Riga, Latvia) that applies non-invasive, mechanically driven rotation; thus, the cell suspension is mixed efficiently, mixing and oxygening the culture at 37 °C. Cell growth kinetics were recorded non-invasively in real time from data obtained from a near-infrared optical system, every 15 min.

[10] = system: P. aeruginosa; assay: Effect on bacterial growth curves; format: cell-based; details: for effect on growth curve: at ½ MIC or ¼ MIC
Method: as §3

[11] = system: S. aureus; assay: Effect on bacterial growth curves; format: cell-based; details: at MIC, ½ MIC and ¼ MIC
Method: as §3

[12] = system: HEK293 cells
Method: as §4

[13] = in vitro; details: human
Method: as §4

[14] = MTT cytotoxicity assay; format: cell-based, human; details: human, HepG2 cells, HepG2, 24 h exposure
Method: as §4

Row | MIC [1] | MIC [2] | MIC [3] | MIC [4] | MIC [5] | Structure (SMILES) | MBC [1] | MBC [2] | MBC [4] | MBC [5] | toxicity (MTT) [6] | MBC [3] | MIC [7] | time–kill: effect on bacterial population [8] | effect on growth curve [9] | delay in growth ([10]; at the MIC) | effect on growth curve [10] | effect on growth curve [11] | toxicity (MTT) [12] | IC50 at 24 h [13] | IC50 at 24 h [14]
1 | 128 µg/mL (≈ 87.4 µM) | 64 µg/mL (≈ 43.7 µM) | >128 µg/mL | 32 µg/mL (≈ 21.8 µM) | 32 µg/mL (≈ 21.8 µM) | CC(C)C[C@H](NC(=O)[C@H](CC(C)C)NC(=O)[C@H](CCCCN)NC(=O)[C@H](CC(C)C)NC(=O)[C@H](CC(C)C)NC(=O)[C@H](CCCCNC(=O)[C@H](CCCCN)NC(=O)[C@H](CC(C)C)NC(=O)[C@@H](N)CCCCN)NC(=O)[C@H](CCCCN)NC(=O)[C@H](CC(C)C)NC(=O)[C@@H](N)CCCCN)C(N)=O [G1KLK-L2KL2, (KLK)2KLLKLL-NH2] (H-KLKK([Lys-Leu-Lys])LLKLL-NH2) | 128 µg/mL (≈ 87.4 µM) | 64 µg/mL (≈ 43.7 µM) | 32 µg/mL (≈ 21.8 µM) | 32 µg/mL (≈ 21.8 µM) | did not show toxicity at the range of concentrations tested | – | – | – | – | – | – | – | – | – | –
2 | 32 µg/mL (≈ 10 µM) | 8 µg/mL (≈ 2.5 µM) | 32 µg/mL (≈ 10 µM) | 16 µg/mL (≈ 5 µM) | 8 to 16 µg/mL | CC(C)C[C@H](NC(=O)[C@H](CC(C)C)NC(=O)[C@H](CCCCN)NC(=O)[C@H](CC(C)C)NC(=O)[C@H](CC(C)C)NC(=O)[C@H](CCCCNC(=O)[C@H](CCCCN)NC(=O)[C@H](CC(C)C)NC(=O)[C@H](CCCCN)NC(=O)[C@H](CCCCNC(=O)[C@H](CCCCN)NC(=O)[C@H](CC(C)C)NC(=O)[C@@H](N)CCCCN)NC(=O)[C@H](CCCCN)NC(=O)[C@H](CC(C)C)NC(=O)[C@@H](N)CCCCN)NC(=O)[C@H](CCCCN)NC(=O)[C@H](CC(C)C)NC(=O)[C@H](CCCCN)NC(=O)[C@H](CCCCNC(=O)[C@H](CCCCN)NC(=O)[C@H](CC(C)C)NC(=O)[C@@H](N)CCCCN)NC(=O)[C@H](CCCCN)NC(=O)[C@H](CC(C)C)NC(=O)[C@@H](N)CCCCN)C(N)=O [G2KLK-L2KL2, (KLK)4(KKLK)2KLLKLL-NH2] (I: H-KLKK([Lys-Leu-Lys])KLKKLLKLL-NH2 / II: H-KLKK([Lys-Leu-Lys])KLK; amide I:8-II:C) | 32 µg/mL (≈ 10 µM) | 8 µg/mL (≈ 2.5 µM) | 32 µg/mL (≈ 10 µM) | 16 µg/mL (≈ 5 µM) | – | 32 µg/mL (≈ 10 µM) | 64 µg/mL (≈ 20 µM) | – | – | – | less capacity to delay growth | – | – | 116 µg/mL (≈ 36.2 µM) | 124 µg/mL (≈ 38.7 µM)

Row | Structure (SMILES) | MIC [1] | MIC [2] | MIC [3] | MIC [4] | MIC [5] | MBC [1] | MBC [2] | MBC [4] | MBC [5] | toxicity (MTT) [6] | MBC [3] | MIC [7] | time–kill: effect on bacterial population [8] | effect on growth curve [9] | delay in growth ([10]; at the MIC) | effect on growth curve [10] | effect on growth curve [11] | toxicity (MTT) [12] | IC50 at 24 h [13] | IC50 at 24 h [14]
3 | CC(C)C[C@H](NC(=O)[C@H](CC(C)C)NC(=O)[C@H](CCCN)NC(=O)[C@H](CC(C)C)NC(=O)[C@H](CC(C)C)NC(=O)[C@H](CCCCNC(=O)[C@H](CCCN)NC(=O)[C@H](CC(C)C)NC(=O)[C@@H](N)CCCN)NC(=O)[C@H](CCCN)NC(=O)[C@H](CC(C)C)NC(=O)[C@@H](N)CCCN)C(N)=O [G1OLO-L2OL2, (OLO)2KLLOLL-NH2] (H-[Orn]L[Orn]K([Orn-Leu-Orn])LL[Orn]LL-NH2) | 64 µg/mL (≈ 45.9 µM) | 32 µg/mL (≈ 22.9 µM) | 16 µg/mL (≈ 11.5 µM) | 8 µg/mL (≈ 5.74 µM) | 16 µg/mL (≈ 11.5 µM) | 64 µg/mL (≈ 45.9 µM) | 32 µg/mL (≈ 22.9 µM) | 8 µg/mL (≈ 5.74 µM) | 16 µg/mL (≈ 11.5 µM) | – | 16 µg/mL (≈ 11.5 µM) | 64 µg/mL (≈ 45.9 µM) | had no effect at any concentration tested | abolished bacterial growth | approximately 6 h | no effect | negligible | did not show toxicity | 470 µg/mL (≈ 337 µM) | –
